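Dose response: 5 concentrations. Exposure: 48 h. Format: 96-well plates. Endpoint: linear interpolation; highest concentration if not reached. Abbreviation: GI50, concentration required for 50% inhibition of growth. TGI is the concentration that stops growth completely.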
Columns and labels:
Assay in all cases: growth of human tumour cells (NCI), 48 h
[1] = system: PC-3 prostate
[2] = system: NCI/ADR-RES ovarian
[3] = system: NCI-H23 lung
[4] = system: SNB-75 CNS
[5] = system: HCT-116 colon
[6] = system: CCRF-CEM leukemia
[7] = system: NCI-H226 lung
[8] = system: A498 renal
[9] = system: SK-MEL-5 melanoma
[10] = system: MALME-3M melanoma
[11] = system: SR leukemia
[12] = system: UO-31 renal
[13] = system: NCI-H522 lung
[14] = system: OVCAR-3 ovarian
[15] = system: T-47D breast
[16] = system: TK-10 renal
[17] = system: K-562 leukemia
[18] = system: A549 NSCLC
[19] = system: SNB-19 CNS
[20] = system: RPMI-8226 leukemia
[21] = system: M14 melanoma
[22] = system: HL-60(TB) leukemia
[23] = system: MDA-MB-435
[24] = system: MOLT-4 leukemia
[25] = system: SF-539 CNS
[26] = system: MCF7 breast
[27] = system: OVCAR-5 ovarian
[28] = system: OVCAR-8 ovarian
[29] = system: U251 CNS
[30] = system: HCT-15 colon
[31] = system: DU-145 prostate
[32] = system: NCI-H460 lung
[33] = system: HS 578T breast
[34] = system: SW-620 colon
[35] = system: SF-268 CNS
[36] = system: KM12 colon
[37] = system: ACHN renal
[38] = system: BT-549 breast
[39] = system: HOP-92 NSCLC
[40] = system: SF-295 CNS
[41] = system: MDA-MB-231 breast
[42] = system: OVCAR-4 ovarian
[43] = system: HT29 colon
[44] = system: UACC-257 melanoma
[45] = system: UACC-62 melanoma
[46] = system: RXF 393 renal
[47] = system: SN12C renal
[48] = system: SK-MEL-2 melanoma
[49] = system: HOP-62 NSCLC
[50] = system: SK-OV-3 ovarian
[51] = system: IGROV1 ovarian
[52] = system: SK-MEL-28 melanoma
[53] = system: EKVX NSCLC
[54] = system: CAKI-1 renal
[55] = system: 786-0 renal
[56] = system: LOX IMVI melanoma
[57] = system: COLO 205 colon
[58] = system: HCC-2998 colon

Compound: CCN(CC)S(=O)(=O)c1cccc(-c2ccc3c(NC(=O)C4CC4)n[nH]c3c2)c1
- GI50 [1]: 2110 nM
- TGI [1]: > 6250 nM
- GI50 [2]: > 6250 nM
- TGI [2]: > 6250 nM
- GI50 [3]: 1860 nM
- TGI [3]: > 6250 nM
- GI50 [4]: 1320 nM
- TGI [4]: > 6250 nM
- GI50 [5]: 1920 nM
- TGI [5]: > 6250 nM
- GI50 [6]: 1840 nM
- TGI [6]: > 6250 nM
- GI50 [7]: 3780 nM
- TGI [7]: > 6250 nM
- GI50 [8]: 1610 nM
- TGI [8]: > 6250 nM
- GI50 [9]: 986 nM
- TGI [9]: 3580 nM
- GI50 [10]: 1460 nM
- TGI [10]: > 6250 nM
- GI50 [11]: 259 nM
- TGI [11]: > 6250 nM
- GI50 [12]: 3970 nM
- TGI [12]: > 6250 nM
- GI50 [13]: 1080 nM
- TGI [13]: > 6250 nM
- GI50 [14]: 1900 nM
- TGI [14]: > 6250 nM
- GI50 [15]: 1050 nM
- TGI [15]: > 6250 nM
- GI50 [16]: 5060 nM
- TGI [16]: > 6250 nM
- GI50 [17]: 381 nM
- TGI [17]: > 6250 nM
- GI50 [18]: 2790 nM
- TGI [18]: > 6250 nM
- GI50 [19]: 3130 nM
- TGI [19]: > 6250 nM
- GI50 [20]: 1600 nM
- TGI [20]: > 6250 nM
- GI50 [21]: 1470 nM
- TGI [21]: > 6250 nM
- GI50 [22]: 2170 nM
- TGI [22]: > 6250 nM
- GI50 [23]: 283 nM
- TGI [23]: > 6250 nM
- GI50 [24]: 1750 nM
- TGI [24]: > 6250 nM
- GI50 [25]: 1470 nM
- TGI [25]: 5600 nM
- GI50 [26]: 1190 nM
- TGI [26]: > 6250 nM
- GI50 [27]: 5690 nM
- TGI [27]: > 6250 nM
- GI50 [28]: 2690 nM
- TGI [28]: > 6250 nM
- GI50 [29]: 2100 nM
- TGI [29]: > 6250 nM
- GI50 [30]: 2400 nM
- TGI [30]: > 6250 nM
- GI50 [31]: 2260 nM
- TGI [31]: > 6250 nM
- GI50 [32]: 2080 nM
- TGI [32]: > 6250 nM
- GI50 [33]: 1830 nM
- TGI [33]: > 6250 nM
- GI50 [34]: 2270 nM
- TGI [34]: > 6250 nM
- GI50 [35]: 2340 nM
- TGI [35]: > 6250 nM
- GI50 [36]: 1080 nM
- TGI [36]: > 6250 nM
- GI50 [37]: 3540 nM
- TGI [37]: > 6250 nM
- GI50 [38]: 1530 nM
- TGI [38]: > 6250 nM
- GI50 [39]: 2580 nM
- TGI [39]: > 6250 nM
- GI50 [40]: 1660 nM
- TGI [40]: > 6250 nM
- GI50 [41]: 2840 nM
- TGI [41]: > 6250 nM
- GI50 [42]: 1610 nM
- TGI [42]: > 6250 nM
- GI50 [43]: 2300 nM
- TGI [43]: > 6250 nM
- GI50 [44]: 2260 nM
- TGI [44]: > 6250 nM
- GI50 [45]: 2280 nM
- TGI [45]: > 6250 nM
- GI50 [46]: 1940 nM
- TGI [46]: 5170 nM
- GI50 [47]: 3770 nM
- TGI [47]: > 6250 nM
- GI50 [48]: 1850 nM
- TGI [48]: > 6250 nM
- GI50 [49]: 2540 nM
- TGI [49]: > 6250 nM
- GI50 [50]: 3480 nM
- TGI [50]: > 6250 nM
- GI50 [51]: 3790 nM
- TGI [51]: > 6250 nM
- GI50 [52]: 3060 nM
- TGI [52]: > 6250 nM
- GI50 [53]: 2190 nM
- TGI [53]: > 6250 nM
- GI50 [54]: 2280 nM
- TGI [54]: > 6250 nM
- GI50 [55]: 2500 nM
- TGI [55]: > 6250 nM
- GI50 [56]: 2440 nM
- TGI [56]: > 6250 nM
- GI50 [57]: 1710 nM
- TGI [57]: > 6250 nM
- GI50 [58]: > 6250 nM
- TGI [58]: > 6250 nM

From PubChem BioAssay (NCI)
